Laboratory results reported in PMC6830309, “Characterizing CDK8/19 Inhibitors through a NFκB-Dependent Cell-Based Assay” (Cells, 2019).
pIC50: −log10 of the molar value. Read-outs that look alike come from different tables or passages of the source.

What was measured:
[1] = test system: TNFα-induced NFκB reporter activity in CDK8/19 dKO 293 cells; assay: NFκB-dependent luciferase reporter cell-based assay in CDK8/19 dKO 293 cells; parameters: species or system human; conditions: for effect on reporter induction in dKO cells: 293-dKO-NFκB-Luc cells; for pIC50: Homo sapiens, read-out: NFkB activity Assay IC50
Description: (§1) The lentiviral construct pHAGE-NFkB-TA-LUC-UBC-dTomato was generated by Darrell Kotton […] Parental WT 293 cells or CDK8/19 dKO 293 cells were transduced with the lentivirus and dTomato-positive cells were sorted out using FACS Aria III. Single-cell clones were expanded and tested for luciferase reporter activities under TNFα- and/or senexin B-treated and untreated conditions with Bright-Glo Luciferase Assay System (Promega, Madison, WI, USA).
(§2) On day 1, cells were seeded in polyethyleneimine-coated 96-well plates at the density of 5 × 10^4 cells per well. […] Chemiluminescence intensity of each well was measured with ChemiDoc Touch™ (Bio-Rad) and quantified using ImageLab software (Bio-Rad). The raw data were then further processed with GraphPad Prism 7.0 (GraphPad Software, San Diego, CA, USA) for curve-fitting and IC50 calculation.

[2] = test system: alkaline phosphatase (ALPase) activity in ST2 cells; parameters: method as in PMID 23453217; conditions: concentration enhancing ALPase activity to 200% of the control; cited from earlier work
[3] = test system: TNFα-induced NFκB reporter activity in WT 293 cells (CDK8/19 inhibition); assay: NFκB-dependent luciferase reporter cell-based assay in WT 293 cells; parameters: species or system human; conditions: for extent of inhibition of NFκB-dependent promoter activation: WT cells
Description: as §1, §2

IL8 mRNA expression = assay: QPCR of TNFα-induced IL8 mRNA in 293 cells and CDK8/19 knockout derivatives; format: cell-based, human; conditions: dKO 293 cells; 1 μM senexin B
Description: (§3) Cells were seeded in 12-well plates at density of 3 × 10^5 cells per well in regular culture media 24 h before treatment. Cells were first pre-treated with 1 μM senexin B or solvent control DMSO (0.1%) for 1 h and then treated with or without 10 ng/mL TNF-α for 2 h. Total RNA was extracted using RNAeasy Mini Kit (Qiagen, Germantown, MD, USA) and 1 µg of total RNA was used to generate cDNA using iScript cDNA synthesis kit (Bio-Rad). Gene expression was quantified using iTaq Universal SYBR green super mix on the CFX384 Real time system (Bio-Rad). The primers used for real-time PCR were: CXCL1-F, […]; CXCL1-R, […]; IL8-F, […]; IL8-R, […]; RPL13A-F, […] and RPL13A-R, […].

CXCL1 mRNA expression = assay: QPCR of TNFα-induced CXCL1 mRNA in 293 cells and CDK8/19 knockout derivatives; format: cell-based, human; conditions: dKO 293 cells; 1 μM senexin B
Description: as §3

[4] = Homo sapiens, HEK293, 3 h, 293-WT-NFKB-LUC#8, 10 ng/mL TNFα 3 h, read-out: NFkB activity Assay IC50
[5] = HEK293, 293-dKO-NFKB-LUC#2, 10 ng/mL TNFα 3 h
[6] = 293-WT-NFKB-LUC#8, 10 ng/mL TNFα 3 h, read-out: NFkB activity Assay IC50

Question: For `NC(=O)c1sc2nccc(N3CCCN(c4ccccc4)CC3)c2c1N` [15k], which “effect on reporter induction in dKO cells” value (shortened to “effect on reporter induction”) ([1]; 10 ng/mL TNFα 3 h) is on record?
Answer: none of them showed any activity

Question: For `Cc1ccc(N2CCCN(c3ccnc4sc(C(N)=O)c(N)c34)CC2)cc1` [15n], which “ALP activity Assay EC200” value [2] is on record?
Answer: 115.4 nM

Question: And the pIC50 [3, 4]?
Answer: 7.37

Question: With `COc1ccc(N2CCCN(c3ccnc4sc(C(N)=O)c(N)c34)CC2)cc1` [15q] as the molecule, how does the “ALP activity Assay EC200” value [2] read?
Answer: 88.1 nM

Question: What about the pIC50 [3, 4] of the same molecule?
Answer: 7.42

Question: Which results are given for `CN(C)C(=O)c1ccc(N2CCCN(c3ccnc4sc(C(N)=O)c(N)c34)CC2)cc1` [15u]?
Answer: effect on reporter induction in dKO cells ([1]; 10 ng/mL TNFα 3 h): none of them showed any activity; pIC50 [1, 5]: < 6.00; ALP activity Assay EC200 [2]: 31.9 nM; pIC50 [3, 6]: 8.00; pIC50 [3, 4]: 7.99

Question: Which “ALP activity Assay EC200” value [2] does the source give for `CNC(=O)c1ccc(N2CCCN(c3ccnc4sc(C(N)=O)c(N)c34)CC2)cc1` [15v] here?
Answer: 54.2 nM

Question: And the pIC50 [3, 4]?
Answer: 7.64

Question: With `CN(C)C(=O)Cc1ccc(N2CCCN(c3ccnc4sc(C(N)=O)c(N)c34)CC2)cc1` [15w] as the molecule, how does the “effect on reporter induction” value ([1]; 10 ng/mL TNFα 3 h) read?
Answer: none of them showed any activity

Question: What about the pIC50 [1, 5] of the same molecule?
Answer: < 6.00

Question: What about the “ALP activity Assay EC200” value [2] of the same molecule?
Answer: 6.6 nM

Question: And the pIC50 [3, 6]?
Answer: 8.40

Question: And the pIC50 [3, 4]?
Answer: 8.39

Question: Which results are given for `CC(C)C[C@H](NC(=O)[C@H](Cc1ccccc1)NC(=O)c1cnccn1)B(O)O` [Bortezomib, bortezomib]?
Answer: pIC50 [1, 5]: 6.76; pIC50 [3, 4]: 6.51

Question: With `CCc1cnn2c(NCc3ccc[n+]([O-])c3)cc(N3CCCC[C@H]3CCO)nc12` [Dinaciclib] as the molecule, how does the “extent of inhibition of NFκB-dependent promoter activation” value ([1]; dKO cells, 10 ng/mL TNFα 3 h) read?
Answer: completely inhibited

Question: What about the “extent of inhibition of NFκB-dependent promoter activation” value ([3]; 10 ng/mL TNFα 3 h) of the same molecule?
Answer: completely inhibited

Question: With `CN1CC[C@H](c2c(O)cc(O)c3c(=O)cc(-c4ccccc4Cl)oc23)[C@H](O)C1` [Flavopiridol] as the molecule, how does the pIC50 [1, 5] read?
Answer: 7.59

Question: And the “extent of inhibition of NFκB-dependent promoter activation” value ([1]; dKO cells, 10 ng/mL TNFα 3 h)?
Answer: completely inhibited

Question: What about the pIC50 [3, 4] of the same molecule?
Answer: 7.47

Question: And the “extent of inhibition of NFκB-dependent promoter activation” value ([3]; 10 ng/mL TNFα 3 h)?
Answer: completely inhibited

Question: With `CC(=O)c1c(C)c2cnc(Nc3ccc(N4CCNCC4)cn3)nc2n(C2CCCC2)c1=O` [Palbociclib, palbociclib] as the molecule, how does the pIC50 [1, 5] read?
Answer: < 5.70

Question: And the “extent of inhibition of NFκB-dependent promoter activation” value ([1]; dKO cells, 10 ng/mL TNFα 3 h)?
Answer: only weak inhibitory effects at high concentrations

Question: And the pIC50 [3, 4]?
Answer: < 5.70

Question: And the “extent of inhibition of NFκB-dependent promoter activation” value ([3]; 10 ng/mL TNFα 3 h)?
Answer: only weak inhibitory effects at high concentrations

Question: With `CN(C)C/C=C/C(=O)Nc1ccc(C(=O)Nc2cccc(Nc3ncc(Cl)c(-c4c[nH]c5ccccc45)n3)c2)cc1` [THZ1] as the molecule, how does the pIC50 [1, 5] read?
Answer: 6.45

Question: What about the “extent of inhibition of NFκB-dependent promoter activation” value ([1]; dKO cells, 10 ng/mL TNFα 3 h) of the same molecule?
Answer: completely inhibited

Question: What about the pIC50 [3, 4] of the same molecule?
Answer: 6.66

Question: And the “extent of inhibition of NFκB-dependent promoter activation” value ([3]; 10 ng/mL TNFα 3 h)?
Answer: completely inhibited

Question: With `Cc1ccc(S(=O)(=O)N[C@@H](Cc2ccccc2)C(=O)CCl)cc1` [TPCK, tosyl-L-phenylalanyl-chloromethane ketone] as the molecule, how does the pIC50 [1, 5] read?
Answer: 4.92

Question: What about the “extent of inhibition of NFκB-dependent promoter activation” value ([1]; dKO cells, 10 ng/mL TNFα 3 h) of the same molecule?
Answer: complete suppression

Question: What about the pIC50 [3, 4] of the same molecule?
Answer: 4.89

Question: What about the “extent of inhibition of NFκB-dependent promoter activation” value ([3]; 10 ng/mL TNFα 3 h) of the same molecule?
Answer: complete suppression

Question: Which “effect on reporter induction” value ([1]; 10 ng/mL TNFα 3 h) does the source give for `CN(C)C1CC23CCC4(O2)C(=CCC2(C)C(c5ccc6ccncc6c5)=CCC24)C=C3C(O)C1O` (centres unmarked) [dCA, didehydro-cortistatin A] here?
Answer: no effect

Question: And the pIC50 ([1]; HEK293, 3 h)?
Answer: < 6.00

Question: And the pIC50 ([3]; Homo sapiens, HEK293, 3 h, read-out: NFkB activity Assay IC50)?
Answer: 8.89

Question: And the “maximal (plateau) inhibition of TNFα-induced reporter induction” value ([3]; WT reporter cells, 10 ng/mL TNFα 3 h)?
Answer: ~ 80%

Question: With `CN1CCN(C(=O)c2ccc3cc(CCNc4ncnc5ccc(C#N)cc45)ccc3c2)CC1` [senexin B] as the molecule, how does the pIC50 [1, 5] read?
Answer: < 6.00

Question: What about the “inhibition of TNFα-induced luciferase induction” value ([1]; dKO cells, 1 μM senexin B, 10 ng/mL TNFα) of the same molecule?
Answer: not in dKO cells

Question: And the “inhibitory effect on TNFα induction of IL8” value (IL8 mRNA expression)?
Answer: completely abolished

Question: And the pIC50 [3, 4]?
Answer: 6.94

Question: And the pIC50 ([3]; Homo sapiens, HEK293, 3 h, clone WT-#1, 10 ng/mL TNFα 3 h, read-out: IC50 for inhibition of TNFα-induced luciferase expression)?
Answer: 7.02

Question: What about the pIC50 ([3]; Homo sapiens, HEK293, 3 h, clone WT-#2, 10 ng/mL TNFα 3 h, read-out: IC50 for inhibition of TNFα-induced luciferase expression) of the same molecule?
Answer: 6.87

Question: And the pIC50 ([3]; Homo sapiens, HEK293, 3 h, clone WT-#9, 10 ng/mL TNFα 3 h, read-out: IC50 for inhibition of TNFα-induced luciferase expression)?
Answer: 6.73

Question: And the “inhibition of TNFα-induced luciferase expression” value ([3]; all the WT clones, 1 μM senexin B)?
Answer: 70–80%

Question: What about the “inhibitory effect on TNFα induction of CXCL1” value (CXCL1 mRNA expression) of the same molecule?
Answer: completely abolished
